SMILES strings stand for the structures. Converted amounts (≈) assume the structure as drawn. Read-outs that look alike come from different tables or passages of the source.

The subject of data set [1] is Pathogenic micro-organism (S. aureus, S. epidermidis, S. hominis, E. fecalis, S. sacrophyticus, S. lugdunensis). Type of data set: cell-based. The following applies: e-test; median (IQR) of pathogens of the 46 patients (36/46 identified); mg/L. How it is done:
Demographic (age, body weight and height), treatment (dose and co-administered medications) and clinical data (microbiological data, analytical and disease covariates) were collected at patient enrolment. Serum creatinine and serum albumin were measured on the day (if not available, the nearest day) of measurement of the drug concentration.

In the next data set the test system is Staphylococcus aureus. The following applies: total AUC, MIC equal to 1 mg/L, cited from earlier work.
The test system of data set [2] is creatine phosphokinase elevation. Conditions: in vivo; cited from earlier work. How it is done:
The probability of Cmin ≥24.3 mg/L at 24 h was calculated for each scenario.

For data set [3] the following is noted: excretion primarily by the kidneys; cited from earlier work.
Data set [4] concerns plasma proteins (albumin and α-glycoprotein). The following applies: cited from earlier work.
The nature of data set [5]: Population pharmacokinetic model of daptomycin in patients with normal and impaired renal function (NONMEM).
Protocol: A prospective multi-center study in patients admitted to the General University Hospital of Castellón (Castellón, Spain) and the Arnau de Vilanova Hospital of Valencia (Valencia, Spain) was conducted. […] The exclusion criteria were patients with renal replacement therapy.
Five serial blood samples were collected from a peripheral vein from day 4 (steady state) at the pre-dose, 0.5, 1–2, 4–10 h after the infusion ended and before the next dose.
Precision and accuracy were assessed by performing replicate analysis of quality control samples against calibration standards. Intra- and inter-assay coefficients of the variation were always <10%.
All data analyses were performed based on the population approach with the software NONMEM® (Version 7.4; Icon Inc, PA, USA). The population PK parameters were estimated using the Stochastic Approximation of the Expectation Maximization and the Importance Sampling Estimation method. The Perl-Speaks-NONMEM program (version 4.8.1, Department of Pharmaceutical Biosciences, Uppsala University, Sweden) [33] and Pirana software (version 2.9.6, Pirana Software & Consulting BV) were used for model development and evaluation. Data processing and graphical analysis were conducted using R (version 4.0.0, http://cran.r-project.org, accessed on 14 April 2020) and R-Studio (version v2021.09.0+354).
(§1) This model assumes that Cbound is directly proportional to Cfree with no saturable mechanism. • Non-linear binding model with single site binding [38, 39]: (2) Ctotal=Cfree+Bmax·Cfree/(KD+Cfree) where Bmax (mg/L) represents the maximal binding capacity and KD (mg/L) is the equilibrium dissociation constant. • Non-linear binding model with multiple site binding [38, 40, 41] (3) Ctotal=Cfree+∑^ Bmax,i·Cfree/(KD,i+Cfree) where Bmax,i and KD,i represent the binding-dissociation parameters of the i th binding site of plasma proteins.
Inter-individual variability (IIV) associated with the PK model parameters was modeled exponentially, and the residual unexplained variability (RUV) was explored using the additive error model on the logarithmic scale. The significance of the non-diagonal elements of the Ω variance-covariance matrix was evaluated.
Once the base model was selected, a graphical exploration of the correlations between the PK parameters (when eta-shrinkage was less than 35%) [42] and covariates was performed. The continuous covariate included age, height, body weight, serum creatinine, creatinine clearance, and albumin. The categorical covariates were gender and statin co-administration. A numerical evaluation of the parameter-covariate relationship was performed manually in a univariate testing.
The model selection was based on the physiological and pharmacological rationale with the principle of parsimony [43]. A decrease in 3.84 points of the objective function value (OFV) provided by NONMEM® between two nested models differing in one parameter was considered significant at the 5% level, together with the visual inspection of the goodness of fit (GOF) [44] and normalized prediction distribution error (NPDE) plots [45].
A model evaluation [46, 47] was performed through prediction-corrected visual predictive checks (pc-VPC), [48] and a non-parametric bootstrap (n = 1000) was conducted to assess the statistical significance of the final parameter estimates.
[6] abbreviates: non-parametric bootstrap n = 1000, median.
[7] abbreviates: population estimate, final model, unbound daptomycin, 46 patients.

Description for human plasma proteins: as §1

With `CCCCCCCCCC(=O)N[C@@H](Cc1c[nH]c2ccccc12)C(=O)N[C@H](CC(N)=O)C(=O)N[C@@H](CC(=O)O)C(=O)N[C@@H]1C(=O)NCC(=O)N[C@@H](CCCN)C(=O)N[C@@H](CC(=O)O)C(=O)N[C@H](C)C(=O)N[C@@H](CC(=O)O)C(=O)NCC(=O)N[C@H](CO)C(=O)N[C@@H]([C@H](C)CC(=O)O)C(=O)N[C@@H](CC(=O)c2ccccc2N)C(=O)O[C@@H]1C` [daptomycin], in data set [1], the MIC micro-organism is listed as 0.5 (0.25, 0.5). Besides, in the data set with human plasma proteins (in vivo), the “Bmax (maximal binding capacity)” value turned out to be 160 mg/L and the “Bmax, bootstrap median” value is recorded as 157 mg/L. Further, the “KD, bootstrap median” value on human plasma proteins (setting [6]) stood at 3.61 mg/L (≈ 2.23 µM). Further, the “KD (equilibrium dissociation constant)” value at human plasma proteins (population estimate, single-site non-linear binding model, estimated from total concentrations, no free concentrations measured) is reported as 3.56 mg/L (≈ 2.2 µM). In the data set with Staphylococcus aureus (ref 19), the “AUC with bactericidal effect” value was 761 mg·h/L and the “AUC with bacteriostatic effect” value was 465 mg·h/L. For the same compound, the “AUC with bactericidal effect” value in the data set with Staphylococcus aureus (ref 24, 51, 52) is 666 mg·h/L. In addition, the “trough level (Cmin) associated with a 50% probability of creatine phosphokinase elevation” value in data set [2] was not below 24.3 µg/mL. The eliminated in urine in data set [3] is listed as 54–78%. Moreover, in data set [4], the free fraction entry is reported as “around 10%”; the “reversibly bound to albumin and α-glycoprotein” value is given as 90%. Further, in data set [5] (setting [6]), the “CL, bootstrap median” value was found to be 7.01 L/h; the “Q, bootstrap median” value was 1.93 L/h; the “V1, bootstrap median” value came to 0.97 L. For the same compound, in data set [5] (setting [7]), the “Q (intercompartmental clearance)” value is 1.96 L/h and the “V1 (apparent volume of distribution of the unbound central compartment)” value is on record as 0.95 L.

These data come from publication PMC9607246 (Pharmaceutics, 2022).
